Test [1] concerns antigen-specific T cells (CD4 or CD8-positive) from healthy human PBMCs. The experiment in a line: Immunogenicity evaluation of peptides with healthy human PBMCs (ICS for IFNy or IFNy ELISA). The conditions noted are these: for activation of CD8-positive cells: donor No. 9; for immunogenicity as HLA Class I / Class II epitope / activation of CD4-positive T cells: healthy donor PBMCs; for activation of CD4-positive T cells: CD4-positive IFNy-producing cells; for samples in which the peptide had immunogenicity (positive/tested): single peptide re-analysis, 24 donors (Mix-1, Mix-2 peptides) or 25 donors (Mix-3 peptides). Format: cell-based. The text has this:
Peripheral blood mononuclear cells (PBMCs) that were those of a lot containing HLA-A*24:02 or A*02:01 of purified normal human PBMCs (Precision Bioservice, 93000-10M or -50M), were selected and used. Alternatively, PBMCs were separated and collected by density gradient centrifugation from peripheral blood provided by 10 healthy volunteers (including those of HLA-A*24:02 or A*02:01) recruited at the Kanagawa Cancer Center Research Institute, and were used in the experiment.
Healthy human PBMCs of 2×10^6 cells were cultured (a CO2 incubator; 5% CO2 and at 37° C.) for 7 days in the presence of the peptides to be evaluated (2, 2.5 or 5 μg/mL, and in the case of Mix (described later), 2 lag/mL for each peptide), and then the cells were collected. AIM-V medium (Thermo Fisher Scientific K.K., 12055-091) supplemented with a 5% human serum (NIP Biomedicals, 2931949) was used as medium.
On the other hand, the PBMCs of the same lot were cultured in the presence of a GM-CSF and IL-4 for 7 days to differentiate into dendritic cells (DC), and a part thereof was cryopreserved.
Cell stimulation for evaluation of immunogenicity was carried out according to the method outlined in FIG. 2. Namely, the PBMCs stimulated with the peptide for 7 days were collected and co-cultured in the presence of DC (1×10^5 cells) treated with a mitomycin C (60 μg/mL, Kyowa Kirin Co., Ltd.), each peptide (2, 2.5 or 5 μg/mL), and 0.1 KE/mL of OK-432 (for injection of Picibanil, Chugai Pharmaceutical Co., Ltd.). An IL-2 (PeproTech, Inc., AF-200-02) was added at 10 IU/mL on the second day of the co-culture (Day 9 with the stimulation start date as Day 0), and the cells were further cultured for 5 days.
After culturing (Day 14), the cells were collected, the cryopreserved DC was thawed, and the cells were co-cultured again in the presence of the same concentration of each peptide for 7 days. The cells cultured for a total of 21 days were collected, and activation of antigen-specific T cells was confirmed by intracellular cytokine staining (ICS) or IFNy ELISA. For evaluation, the PBMCs for 24 donors (of Mix-1 and Mix-2) or the PBMCs for 25 donors (of Mix-3) (the donor numbers 1 to 10 are derived from healthy volunteers, and the donor numbers with 3 digits were purchased from Precision Bioservice, Inc.), were used. In this study, 10 kinds of peptides designed from the sequences containing the driver mutations in Example 1 and synthesized (SEQ ID NO: 1 to SEQ ID NO: 10) were mixed to the following mixtures containing 3 to 4 kinds of peptides (see FIG. 4): Mix-1: a mixture of KRA S-G 1 2C (SEQ ID NO: 3), NRAS-Q61K (SEQ ID NO: 6) and PIK3CA-H1047R (SEQ ID NO: 8); Mix-2: a mixture of KRAS-G12V (SEQ ID NO: 2), NRAS-Q61R (SEQ ID NO: 7), and PIK3CA-E545K (SEQ ID NO: 9); and Mix-3: a mixture of KRAS-G12D (SEQ ID NO: 1), KRAS-G12R (SEQ ID NO: 4), KRAS-G13D (SEQ ID NO: 5), and C-Kit-D816V (SEQ ID NO: 10). First, activation of antigen-specific T cells by stimulation with each Mix was observed, and when the activation was observed, the T cells were stimulated in the presence of each peptide alone to identify a peptide having immunogenicity. The presence or absence of activation was determined by the ICS (IFNy) or ELISA (IFNy in the culture supernatant).
Intracellular cytokine staining (ICS) was carried out according to the following procedure. The cells (5.0×10^4 cells) cultured for 21 days in the presence of the peptide and collected in the present Example, and antigen-presenting cells (APC) (autologous DC; 5×10^3 cells) were placed in a 96-well U bottom plate and cultured for 2 hours in the presence of the peptide. 10 μg/mL of Brefeldin A (Merck KGaA, B7651) was added to the cells to culture for 20 to 24 hours. […]
(ELISA stands for enzyme-linked immunosorbent assay.)

Test [2] concerns PIK3CA-H1047R-specific TCR-T cells. Put plainly: Antigen specificity of TCR-T cells (IFNy-producing cells by flow cytometer). The format is cell-based, human. The conditions noted are these: TCR-T cells co-cultured with APC (donor No. 9-derived EB virus immortalized B cells) in the presence of the peptide, 20 to 24 hours. The method, then:
Via a retrovirus vector (donated by Toyama University) to which the TCRa chain gene (SEQ ID NO: 29) and TCRI3 chain gene (SEQ ID NO: 30) identified in Example 5 derived from the donor No. 9-derived PIK3CA-H1047R-specific T cells were inserted, a cell line (TCR-T cell) expressing the TCR gene was prepared by introducing the PIK3CA-H1047R-specific TCR gene into T cells derived from healthy subjects. The prepared TCR-T cells (TCR gene-expressing cell line) (5.0×10^4 cells as T cells) and APC (donor No. 9-derived EB virus immortalized B cells; 5×10^3 cells) were cultured in a 96 well U bottom plate for 20 to 24 hours in the presence of the antigen peptide (PIK3CA-H1047R (SEQ ID NO: 8)) or the wild-type peptide thereof ([…]), then the cultured cells were collected, and antigen specificity was confirmed by detecting IFNy-producing cells with a flow cytometer.
(In general: Flow cytometry measures light scatter and fluorescence of single cells or particles in a stream.)

For test [3], the target named is T1, PIK3CA H1047R peptide on HLA-DRB1*04:05 (human).
T1 peptide: EYFMKQMNDARHGGW
The experiment in a line: cytokine release.

Test [4] has as its target T2, PIK3CA H1047R peptide on HLA-DRB1*04:05 (human).
T2 peptide: LEYFMKQMNDARHGG
The experiment in a line: cytokine release.

The target of test [5] is T3, PIK3CA H1047R peptide on HLA-DRB1*04:05 (human).
T3 peptide: FMKQMNDARHGGWT
Put plainly: cytokine release.

For test [6], the target named is T4, PIK3CA H1047R peptide on HLA-DRB1*04:05 (human).
T4 peptide: EALEYFMKQMNDARH
The experiment in a line: cytokine release.

In test [7] the target is T5, PIK3CA wild-type peptide on HLA-DRB1*04:05 (human).
T5 peptide: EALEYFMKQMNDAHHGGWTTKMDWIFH
The experiment in a line: cytokine release.

Test [8] has as its target T6, PIK3CA H1047R peptide on HLA-DRB1*04:05 (human).
T6 peptide: YFMKQMNDARHGGW
Put plainly: cytokine release.

In test [9] the target is T7, PIK3CA H1047R peptide on HLA-DRB1*04:05 (human).
T7 peptide: MKQMNDARHGGWTT
The experiment in a line: cytokine release.

Test [10] concerns the target T8, PIK3CA H1047R peptide on HLA-DRB1*04:05 (human).
T8 peptide: ALEYFMKQMNDARHG
The experiment in a line: cytokine release.

“Also recorded” adds a separate entry of the source.

For “C-Kit-D816V: 27-mer C-Kit D816V neoantigen peptide GRITKICDFGLAR[V]IKNDSNYVVKGNA (GRITKICDFGLARVIKNDSNYVVKGNA; listed as Homo sapiens)”, in test [1], the “activation of CD8-positive cells” value is listed as “activation of CD8-positive cells was observed in 1 donor”; the “immunogenicity as HLA Class I / Class II epitope” value is “immunogenicity as both the HLA Class I epitope and the Class II epitope”; the “activation of CD4-positive T cells” value was “those derived from 4 donors were CD4 positive; also recorded: activation of CD4-positive T cells was observed; also recorded: particularly strong ability to activate CD4-positive helper T cells”; the “samples in which the peptide had immunogenicity (positive/tested)” value (“samples … (positive/tested)” below) is 5/25.

Take “EALEYFMKQMNDAHHGGWTTKMDWIFH [WT1, wild-type peptide of PIK3CA-H1047R, reference compound]”: the “frequency of IFNy-producing cells” value in test [2] is reported as “less than 1%”.

For the molecule “KRAS-G12D: 27-mer KRAS G12D neoantigen peptide MTEYKLVVVGA[D]GVGKSALTIQLIQNH”, in test [1], the “activation of CD4-positive T cells” value is recorded as “activation of CD4-positive T cells was observed; also recorded: particularly strong ability to activate CD4-positive helper T cells” and the “samples … (positive/tested)” value is recorded as 1/25. Further, the “frequency of samples in which the peptide had immunogenicity” value in [1] (samples derived from healthy people, single peptide analysis) was determined as 4.0%.

“NRAS-Q61R: 27-mer NRAS Q61R neoantigen peptide GETCLLDILDTAG[R]EEYSAMRDQYMRT (GETCLLDILDTAGREEYSAMRDQYMRT; listed as Homo sapiens)”: in test [1], the “activation of CD4-positive T cells” value is given as “they were all CD4-positive T cells; also recorded: activation of CD4-positive T cells was observed; also recorded: particularly strong ability to activate CD4-positive helper T cells” and the “samples … (positive/tested)” value is 3/24.

Take “PIK3CA-H1047R: 27-mer PIK3CA H1047R neoantigen peptide EALEYFMKQMNDA[R]HGGWTTKMDWIFH (EALEYFMKQMNDARHGGWTTKMDWIFH; listed as Homo sapiens)”: in test [1], the “activation of CD8-positive cells” value was “activation of CD8-positive cells was also observed”; the “immunogenicity as HLA Class I / Class II epitope” value was “immunogenicity as both the HLA Class I epitope and the Class II epitope”; the “activation of CD4-positive T cells” value is listed as “All antigen-specific T cells activated in the 4 donors were CD4 positive; also recorded: activation of CD4-positive T cells was observed; also recorded: particularly strong ability to activate CD4-positive helper T cells”; the “samples … (positive/tested)” value is on record as 4/24. In addition, the “frequency of IFNy-producing cells” value in test [2] was 30.4%±0.9%.

B1: TCR of the donor No. 9-derived PIK3CA-H1047R-specific T cells (SEQ ID NOs 29 and 30) (TCR, V domains shown)
Valpha: QQVKQSPQSLIVQKGGISIINCAYENTAFEYFPWYQQFPGKGPALLIAIRPDVSEKKEGRFTISFNKSAKQFSLHIMDSQPGDSATYFCAASGSYNNNDMRFGAGTRLTVKP
Vbeta: NAGVTQTPKFQVLKTGQSMTLQCAQDMNHEYMSWYRQDPGMGLRLIHYSVGAGITDQGEVPNGYNVSRSTTEDFPLRLLSAAPSQTSVYFCASSYASPGTGYSGELFFGEGSRLTVL
As for B1, the binding result was “recognises” in test [3]; “recognises” in test [4]; “recognises” in test [5]; “recognises” in test [6]; “no recognition” in test [7]; “recognises” in test [8]. The binding result in [9] and in test [10] was “recognises” in each case.
